Experimental data from patent US20090131441A1, “Metabolites Of 2-Arylpropionic Acid Derivatives And Pharmaceutical Compositions Containing Them” (DOMPE phar.r.ma S.p.A., priority 2005, published 2009).

Legend:
[1] = T1/2 after single bolus i.v. administration in rat; conditions: in vivo, iv; after single bolus i.v. administration in rat (15 mg/Kg); read-out: T½ (converted)
From the text: Furthermore, the compounds of formula (I) have a pharmacokinetic profile particularly advantageous for the therapeutic use. In fact, as compared to the compounds of formula (III), the compounds of the invention, administered “in vivo” by the i.v. route, show a longer T1/2 associated to a reduced clearance time.
(§1) Table I and II show, as an example, the significant differences in T1/2 and protein binding (%) between metabolites of formula (I) and corresponding parent compounds of formula (III).

[2] = in vitro binding to rat plasma proteins; assay type: in vitro ADME; conditions: compound concentration 10 μg/mL, read-out: Protein Binding (converted)
From the text: as §1

[3] = test system: IL-8 induced chemotaxis of human PMNs; assay: IL-8 induced PMN chemotaxis assay; assay type: cell-based; conditions: read-out: inhibition of IL-8-induced PMN migration
Procedure: The compounds of the invention of formula (I) were evaluated in vitro for their ability to inhibit chemotaxis of polymorphonucleate leukocytes (hereinafter referred to as PMNs) and monocytes induced by the fractions of IL-8 and GRO-α and C5a and directly compared to the corresponding parent 4-isobutyl compounds of formula (III). For this purpose, in order to isolate the PMNs from heparinized human blood, taken from healthy adult volunteers, mononucleates were removed by means of sedimentation on dextran (according to the procedure disclosed by W. J. Ming et al., J. Immunol., 138, 1469, 1987) and red blood cells by a hypotonic solution. The cell vitality was calculated by exclusion with Trypan blue, whilst the ratio of the circulating polymorphonucleates was estimated on the cytocentrifugate after staining with Diff Quick. […]
The compounds of the invention in formula (I) were evaluated at a concentration ranging between 10^−6 and 10^−10 M; for this purpose they were added, at the same concentration, both to the lower pores and the upper pores of the microchamber. […]

SMILES | half-life [1] | fraction unbound at 10 μg/mL [2] | inhibition at 1 µM ([3]; compound concentration 10^−6M) | inhibition at 0.01 µM ([3]; compound concentration 10^−8M)
CC(Cc1ccc([C@@H](C)C(=O)NCCCN2CCCCC2)cc1)C(=O)O (stereo partly shown) [Example 4] | 120 min | 0.3 |  | 
CC(C)Cc1ccc([C@@H](C)C(=O)NS(C)(=O)=O)cc1 [(R)-2-[(4-isobutyl)phenyl]propionyl methanesulfonamide, reference compound] | 30 min | < 0.01 |  | 
CC(C)Cc1ccc([C@@H](C)C(=O)NCCCN2CCCCC2)cc1 [(R)-2-[(4-isobutyl)phenyl]-N-[3″-(N′-piperidino)propyl]propionamide, reference compound] | 60 min | 0.2 |  | 
CC(Cc1ccc([C@@H](C)C(=O)NS(C)(=O)=O)cc1)C(=O)O (stereo partly drawn) [Example 1, (2R) (2″ R, S) 2-[4′-(2″-carboxyprop-1-yl)phenyl]propionyl methanesulfonamide] | 120 min | 0.28 | 66 ± 8% | 49 ± 9%
